Measurements as given in US20260374739A1, “SMALL MOLECULAR WEIGHT CHEMICAL COMPOUND TO ANTAGONIZE EPH-EPHRIN TETRAMERIZATION AND INHIBIT BIDIRECTIONAL SIGNALING” (THE BOARD OF REGENTS OF THE UNIVERSITY OF TEXAS SYSTEM, priority 2022, published 2026).
Where “and” joins values, the source holds several entries; their conditions need not be identical. Equal entries are not always repeated. Marks after values point to notes of the source that are not given here.

How the values were obtained:
EphrinB2-EphB2 [1] = target: T1, EphrinB2-EphB2 (Homo sapiens, UniProt P29323); experiment: Octet tetramerization inhibition, immobilized human EphrinB2 binding to 50 nM soluble human EphB2
T1 construct: soluble human EphB1-His, EphB2-His, and EphB4-His ectodomains; commercially available human EphrinB1-Fc (EB1), EphrinB2-Fc (EB2), and EphrinB3-Fc (EB3) ectodomain proteins; purchased
T1 sequence (P29323 19-543 limits assumed): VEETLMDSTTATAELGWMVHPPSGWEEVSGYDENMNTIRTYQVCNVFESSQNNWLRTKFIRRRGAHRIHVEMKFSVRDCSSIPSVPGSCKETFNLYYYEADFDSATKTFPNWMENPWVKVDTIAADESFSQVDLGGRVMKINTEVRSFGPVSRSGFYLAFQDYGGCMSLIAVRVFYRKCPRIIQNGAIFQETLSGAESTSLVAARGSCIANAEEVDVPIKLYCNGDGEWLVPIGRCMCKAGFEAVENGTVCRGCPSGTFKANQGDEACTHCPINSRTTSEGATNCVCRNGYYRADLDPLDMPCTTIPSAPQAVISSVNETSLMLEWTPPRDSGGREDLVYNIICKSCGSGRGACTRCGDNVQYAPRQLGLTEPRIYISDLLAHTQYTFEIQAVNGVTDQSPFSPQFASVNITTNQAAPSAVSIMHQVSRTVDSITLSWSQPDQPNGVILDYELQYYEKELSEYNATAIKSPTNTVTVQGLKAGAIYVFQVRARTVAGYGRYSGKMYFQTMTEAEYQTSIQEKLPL

EphrinB2-EphB2 [2] = target: T1, EphrinB2-EphB2; experiment: Octet 80 sec association/500 sec dissociation, immobilized human EphrinB2-Fc binding to soluble human EphB2-His; details: immobilized human EphrinB2, 25 nM soluble human EphB2
Protocol: (§1) In another experiment, whether certain A20 analogs might have specificity for different Eph receptors was tested. An Octet RED384 system was used to obtain biophysical ON-OFF binding data (association-dissociation) for the three different human EphrinB2-EphB1, EphrinB2-EphB2, and EphrinB2-EphB4 protein-protein interactions and to assess the effect of A20 chemicals on the binding kinetics.
(§2) FIGS. 72A-72C show three example Octet sensorgram response traces for the immobilized human EphrinB2 ectodomain protein binding to soluble forms of the human EphB1, EphB2, and EphB4 ectodomain proteins, in the absence or presence of an A20 chemical (buffer conditions are always PBSTD:PBS with 0.05% Tween-20, 1% DMSO, and +/− indicated chemical). After loading EphrinB2-Fc protein to Octet AHC biosensors, washing, and obtaining stable baseline measurements in the appropriate PBSTD (either with or without indicated chemical), the sensors are placed in its buffer that also contains the indicated soluble EphB protein for the association step (0-80″), and then returned to its buffer for the dissociation step (81″-580″). In each figure (FIGS. 72A-72C), a sensorgram run using 10 μM of the 2×HCl salt form of A20-I is compared to the no compound control run to exemplify the maximum level of reduced response signal typically obtained with a potent A20 chemical.
(§3) Because the response levels during the dissociation step plateau for the EphrinB2-EphB2 and EphrinB2-EphB1 interactions by the first 80″, AUCs were also calculated for run data encompassing the first 160″ of each experiment to account for both the 80″ association data (red asterisks) and the first 80″ of dissociation data (marked by green line and asterisks).
(§4) The selectivity of another A20 analog (a 3×HCL salt form of compound BQPB4) in comparison to previously tested compound, A20-1, was tested as described in Example 27 above.
(§5) Further to the experiments listed above, a series of dose-response experiments were conducted to determine the IC50 of a selected A20 chemical (A20-1) on the kinetics of human EphrinB2 ligand ectodomain protein binding to its cognate human EphB1, EphB2, and EphB4 receptor ectodomain proteins. FIG. 74A-74C are representative sensorgrams showing the effect of 0, 0.1, 0.2, 0.4, 0.8, 1.6, and 3.2 μM, concentrations of the 2×HCl salt of A20-I along with a 10 μM max standard (also A20-1) on three different Ephrin-EphB interactions (e.g., EphB1 in FIG. 74A, EphB2 in FIG. 74B and EphB4 in FIG. 74C). […] Additional IC50 values were determined at specific timepoints, at 75″ into the association step and at 55″ into the dissociation step (135″).
(§6) All absolute and relative IC50 values are provided in the Table 6 below, where absolute are based off the full binding sensorgram traces, and relative are based off of the max control traces.
(§7) In another experiment, the % inhibition for various A20 analog chemicals against the three different EphrinB2-EphB protein interactions was determined. Specifically, the percent inhibition for immobilized human EphrinB2-Fc binding to 25 nM soluble human EphB1-His (FIG. 76A, enlarged in FIG. 76D), EphB2-His (FIG. 76B, enlarged in FIG. 76E), and EphB4-His (FIG. 76C, enlarged in FIG. 76F) with 3511-I, 8009-9255, QTM-Br, A19, A19-NO2, and IM (all at 3.2 μM) was determined.

EphrinB2-EphB4 = target: T2, EphrinB2-EphB4 (Homo sapiens, UniProt P54760); experiment: Octet 80 sec association/500 sec dissociation, immobilized human EphrinB2-Fc binding to soluble human EphB4-His; details: for selectivity among EphrinB2-EphB1/B2/B4: 3.2 μM
T2 construct: soluble human EphB1-His, EphB2-His, and EphB4-His ectodomains; commercially available human EphrinB1-Fc (EB1), EphrinB2-Fc (EB2), and EphrinB3-Fc (EB3) ectodomain proteins; purchased
T2 sequence (P54760 16-539 limits assumed): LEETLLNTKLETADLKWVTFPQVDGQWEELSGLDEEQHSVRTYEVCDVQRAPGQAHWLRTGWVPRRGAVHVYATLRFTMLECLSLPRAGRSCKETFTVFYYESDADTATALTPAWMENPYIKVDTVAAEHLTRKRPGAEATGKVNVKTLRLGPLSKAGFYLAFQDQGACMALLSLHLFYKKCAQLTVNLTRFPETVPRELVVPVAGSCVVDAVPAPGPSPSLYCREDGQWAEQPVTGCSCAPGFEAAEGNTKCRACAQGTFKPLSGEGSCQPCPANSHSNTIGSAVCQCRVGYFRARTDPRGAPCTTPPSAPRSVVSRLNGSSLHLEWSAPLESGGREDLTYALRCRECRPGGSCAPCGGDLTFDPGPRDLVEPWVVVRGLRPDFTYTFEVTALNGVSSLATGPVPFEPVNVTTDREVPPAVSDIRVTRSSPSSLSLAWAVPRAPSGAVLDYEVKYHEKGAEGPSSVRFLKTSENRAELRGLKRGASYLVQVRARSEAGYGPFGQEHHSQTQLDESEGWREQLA
Protocol: as §1, §2, §3, §4, §5, §6, §7

[3] = Absolute AUC/IC50, Table A, EphrinB2-EphB2
[4] = Absolute Association IC50 (300 sec), Table A, EphrinB2-EphB2
[5] = Absolute Dissociation IC50 (450 sec), Table A, EphrinB2-EphB2
[6] = Relative Association IC50 (300 sec), Table A, EphrinB2-EphB2
[7] = tetramerization inhibitor IC50 (relative), association step, surmountable tetramer
[8] = Relative AUC/IC50, Table A, EphrinB2-EphB2, compound 7: association only
[9] = Relative Dissociation IC50 (450 sec), Table A, EphrinB2-EphB2

| SMILES | tetramerization inhibitor activity (EphrinB2-EphB2 [1]) | IC50 (EphrinB2-EphB2 [1]; [3]) | IC50 (EphrinB2-EphB2 [1]; [4]) | IC50 (EphrinB2-EphB2 [1]; [5]) | IC50 (EphrinB2-EphB2 [1]; [6]) | IC50 (EphrinB2-EphB2 [1]; [7]) | IC50 (EphrinB2-EphB2 [1]; [8]) | IC50 (EphrinB2-EphB2 [1]; [9]) | EphB2 Inhibition Percent, Inhibition of Association ONLY (EphrinB2-EphB2 [2]; at 3.2 μM and 80 seconds) | EphB2 Inhibition Percent, Inhibition of Association-Dissociation (EphrinB2-EphB2 [2]; at 3.2 μM and 580 seconds) | selectivity among EphrinB2-EphB1/B2/B4 (EphrinB2-EphB4) | EphB4 Inhibition Percent, Inhibition of Association ONLY (EphrinB2-EphB4; at 3.2 μM and 80 seconds, immobilized human EphrinB2, 25 nM soluble human EphB4) | EphB4 Inhibition Percent, Inhibition of Association-Dissociation (EphrinB2-EphB4; at 3.2 μM and 580 seconds, immobilized human EphrinB2, 25 nM soluble human EphB4) |
| --- | --- | --- | --- | --- | --- | --- | --- | --- | --- | --- | --- | --- | --- |
| Oc1ccc(CN2CCN(c3ccc(I)cc3)CC2)c2cccnc12 [Compound 31, 5-((4-(4-iodophenyl)piperazin-1-yl)methyl)quinolin-8-ol] | appeared less potent | – | – | – | – | – | – | – | – | – | – | – | – |
| Oc1ccc(CN2CCN(c3ccccc3)CC2)c2cccnc12 [Compound 22, 5-((4-phenylpiperazin-1-yl)methyl)quinolin-8-ol] | – | > 3.2 µM | > 3.2 µM | > 3.2 µM | 3 µM | ~3 µM | – | – | – | – | – | – | – |
| Oc1ccc(CN2CCOCC2)c2cccnc12 [Compound 2, 4-((8-hydroxyquinolin-1-ium-5-yl)methyl)morpholin-4-ium chloride] | – | > 6.4 µM | > 6.4 µM | > 6.4 µM | 2.09 µM | – | 2.29 µM | 2.75 µM | – | – | – | – | – |
| COc1ccccc1N1CCN(Cc2ccc(O)c3ncccc23)CC1 [Compound 69, 5-((4-(2-methoxyphenyl)piperazin-1-yl)methyl)quinolin-8-ol] | – | > 3.2 µM | > 3.2 µM | > 3.2 µM | 2.19 µM | – | 2.01 µM | 1.7 µM | 3.6% and 0% | 19.2% and 15.5% | less action toward EphB4 and EphB2 but high specificity for EphB1 | 0*/0*% | 2.2% and 0% |
| O=C(Cc1ccccc1)Nc1ccc(N2CCN(Cc3cc(Br)c(O)c4ncccc34)CC2)cc1 [Compound 52, N-(4-(4-((7-bromo-8-hydroxyquinolin-5-yl)methyl)piperazin-1-yl)phenyl)-2-phenylacetamide] | – | > 3.2 µM | > 3.2 µM | > 3.2 µM | 3.31 µM | > 3 µM | > 3.2 µM | > 3.2 µM | – | – | less action toward EphB4 and EphB2 but high specificity for EphB1 | – | – |
